This note sets out measurements from US20220009967A1, “Isolation and Semi-Synthesis of Rufomycin Analogs” (THE BOARD OF TRUSTEES OF THE UNIVERSITY OF ILLINOIS, priority 2020, published 2022).

For one series, the target named is T1, Mycobacterial ClpC1-NTD (Mycobacterium tuberculosis, UniProt P9WPC9).
T1 construct: caseinolytic protein C1 (ClpC1) N-terminal domain (NTD)
Put plainly: SPR binding affinity to ClpC1-NTD. The following applies: SPR, ClpC1 N-terminal domain; Table 3, unit inferred; read-out: KD NTD. The procedure: (§1) Analysis of binding affinity to Mycobacterial ClpC1-NTD and FL by SPR. SPR binding assay was performed using a previously reported method (Choules et al., Antimicrob. Agents Chemother. 2019, 63, e02204-02218; Wolf et al., ACS Infect. Dis. 2019, 5, 829-840). Kinetic rate constants (ka and kd) were determined by fitting the double-reference data globally to the 1:1 Langmuir model embedded in the Biacore T200 evaluation software (v3.0). KD values were then calculated from the two rate constants (KD=kd/ka). Smaller KD values represent tighter binding affinities.
(In SPR one partner is held on a chip, and binding of the other changes the refractive index at the surface.)

In the next series the test system is M. tuberculosis. The series is described as follows: MIC against M. tuberculosis, microplate Alamar Blue assay (MABA). The class given is cell-based, Mycobacterium tuberculosis. More on the design: MIC90: unit not given beside the values. The following applies: for MIC90: MABA, Table 3, unit not given. The procedure: MICs against M. tuberculosis. The MIC was defined as the minimum concentration of the compound required to achieve a reduction in fluorescence by 90% relative to the untreated bacterial controls. The anti-TB activity was determined by the microplate Alamar Blue assay (MABA) as previously described (Choules et al., Antimicrob. Agents Chemother. 2019, 63, e02204-02218).
(Resazurin is reduced to fluorescent resorufin, in cell work by metabolically active cells.)

Series [1] in a line: Interconversion (epimerization) of rufomycin diastereomers, HPLC analysis. The class given is physicochemical. The note with it: for interconversion / stability of diastereomers (in words): HPLC analysis, hemi-aminal epimers. The source says:
The rufomycins 32-35 were identified as four diastereomers, arising from different orientations of the hydroxyl and methyl groups in the hydroxy-methyl piperidinone moiety. Rufomycin 32 was assigned the (AA5, 4S,5R) absolute configuration based on the ROESY correlations, and further confirmed by the cocrystal structures of rufomycin 32 and ClpC1-NTD. Thus, rufomycin 32 is that congener previously identified as ilamycin, Compound 4, and ilamycin C1 (PCT/US2000/015044). […] The assigned 4S,5S (AA5) absolute configuration for rufomycin 33 was validated by the ROESY correlations. Rufomycin 34 with the absolute configuration 4R,5R (AA5) was established by the ROESY cross-peaks. […] After being purified by semi-prep HPLC, rufomycin 35 was concentrated under a stream of forced air and freeze drying to reduce interconversion.

The target of the next series is T2, Mycobacterial ClpC1 FL (Mycobacterium tuberculosis, UniProt P9WPC9).
T2 construct: N-terminal domain (NTD) and the full-length protein (FL) by surface plasmon resonance (SPR)
T2 sequence (P9WPC9 whole entry, the tested form may be a part): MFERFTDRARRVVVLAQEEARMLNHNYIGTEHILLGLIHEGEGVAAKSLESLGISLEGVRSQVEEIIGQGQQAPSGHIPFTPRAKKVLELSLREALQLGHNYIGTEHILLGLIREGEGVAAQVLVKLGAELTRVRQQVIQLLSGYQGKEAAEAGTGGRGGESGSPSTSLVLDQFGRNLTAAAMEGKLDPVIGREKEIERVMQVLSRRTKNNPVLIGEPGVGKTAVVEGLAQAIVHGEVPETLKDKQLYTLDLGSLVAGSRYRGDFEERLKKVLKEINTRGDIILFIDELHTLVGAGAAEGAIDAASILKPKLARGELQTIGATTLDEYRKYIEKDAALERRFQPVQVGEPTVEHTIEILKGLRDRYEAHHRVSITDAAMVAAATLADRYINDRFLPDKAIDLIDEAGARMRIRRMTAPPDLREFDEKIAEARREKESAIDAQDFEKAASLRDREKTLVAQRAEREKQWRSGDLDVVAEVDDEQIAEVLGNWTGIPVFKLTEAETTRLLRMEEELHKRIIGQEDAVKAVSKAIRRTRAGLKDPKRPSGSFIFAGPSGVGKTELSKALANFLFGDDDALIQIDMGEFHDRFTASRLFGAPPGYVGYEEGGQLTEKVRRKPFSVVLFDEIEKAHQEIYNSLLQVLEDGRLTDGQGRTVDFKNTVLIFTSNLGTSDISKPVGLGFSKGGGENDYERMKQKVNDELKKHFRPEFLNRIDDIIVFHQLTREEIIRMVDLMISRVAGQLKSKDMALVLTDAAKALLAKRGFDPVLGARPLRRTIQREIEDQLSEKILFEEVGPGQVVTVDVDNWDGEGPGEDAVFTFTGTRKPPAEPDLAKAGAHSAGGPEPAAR
The series is described as follows: SPR binding affinity to ClpC1 full-length protein (FL). The note with it: SPR, ClpC1 full-length protein; Table 3, unit inferred; read-out: KD FL. The procedure: as §1

In series [2] the target is caseinolytic protein C1 (ClpC1) full-length protein (FL) (Mycobacterial (Mycobacterium tuberculosis by context)) (UniProt P9WPC9). Put plainly: SPR (Biacore T200), 1:1 Langmuir fit, KD=kd/ka.
caseinolytic protein C1 (ClpC1) full-length protein (FL) (Mycobacterial (Mycobacterium tuberculosis by context)), sequence (P9WPC9 whole entry, the tested form may be a part): as above
Series [3] concerns the target caseinolytic protein C1 (ClpC1) N-terminal domain (NTD) (Mycobacterial (Mycobacterium tuberculosis by context)) (UniProt P9WPC9). Put plainly: SPR (Biacore T200), 1:1 Langmuir fit, KD=kd/ka.

T1 sequence (P9WPC9 2-144): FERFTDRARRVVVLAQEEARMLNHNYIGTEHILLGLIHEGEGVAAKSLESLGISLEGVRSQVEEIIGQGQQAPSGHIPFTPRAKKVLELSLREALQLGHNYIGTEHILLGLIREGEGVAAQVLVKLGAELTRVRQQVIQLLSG
caseinolytic protein C1 (ClpC1) N-terminal domain (NTD) (Mycobacterial (Mycobacterium tuberculosis by context)), sequence (P9WPC9 1-145 limits assumed): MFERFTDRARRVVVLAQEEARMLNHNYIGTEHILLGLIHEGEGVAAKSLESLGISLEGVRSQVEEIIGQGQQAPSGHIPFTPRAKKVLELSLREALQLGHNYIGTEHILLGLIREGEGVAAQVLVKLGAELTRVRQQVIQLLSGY

The term Kd denotes the free concentration of one partner at which half of the binding sites on the other are occupied at equilibrium, for simple one-to-one binding. Consider `C/C=C/C[C@@H]1NC(=O)[C@H](CC(C)C)N2C(=O)[C@H](C[C@H](C)[C@@H]2O)N(C)C(=O)[C@H](C)NC(=O)[C@H](Cc2ccc(O)c([N+](=O)[O-])c2)NC(=O)[C@H](CC(C)C)N(C)C(=O)[C@H](Cc2cn(C(C)(C)[C@H]3CO3)c3ccccc23)NC1=O` [rufomycin 33], for which the Kd at Mycobacterial ClpC1-NTD amounted to 29 nM; on Mycobacterial ClpC1 FL it was 27 nM. Moreover, the MIC90 against M. tuberculosis came out at 12. In the series on M. tuberculosis (MIC data of Table 3), the “anti-M.tb potency relative to rifampin and isoniazid (in words)” value is “higher potency than drugs rifampin and isoniazid”. Besides, the “interconversion / stability of diastereomers (in words)” value in series [1] is “interconvertible”.
As for `C/C=C/C[C@@H]1NC(=O)[C@H](CC(C)C)N2C(=O)[C@H](C[C@@H](C)[C@H]2O)N(C)C(=O)[C@H](C)NC(=O)[C@H](Cc2ccc(O)c([N+](=O)[O-])c2)NC(=O)[C@H](CC(C)C)N(C)C(=O)[C@H](Cc2cn(C(C)(C)[C@H]3CO3)c3ccccc23)NC1=O` [rufomycin 34], the Kd at Mycobacterial ClpC1-NTD worked out at 183 nM; at Mycobacterial ClpC1 FL it was 178 nM. In the series on M. tuberculosis, this molecule had an MIC90 of 46. In addition, in series [1] (under aqueous conditions, slowly), the “conversion to rufomycin 35” value is around 5%.
`C/C=C/C[C@@H]1NC(=O)[C@H](CC(C)C)N2C(=O)[C@H](C[C@@H](C)[C@@H]2O)N(C)C(=O)[C@H](C)NC(=O)[C@H](Cc2ccc(O)c([N+](=O)[O-])c2)NC(=O)[C@H](CC(C)C)N(C)C(=O)[C@H](Cc2cn(C(C)(C)[C@H]3CO3)c3ccccc23)NC1=O` [rufomycin 35]: the figures for the Kd at Mycobacterial ClpC1-NTD and on Mycobacterial ClpC1 FL were 186 nM and 209 nM, respectively. The MIC90 against M. tuberculosis stood at 47. In series [1], the “interconversion / stability of diastereomers (in words)” value is given as “the most unstable diastereomer”. Moreover, the “epimerization to rufomycin 34” value in series [1] (during concentration, quickly) is around 50%.
rufomycins 1 and 2 mixture (peptide): the Kd in series [2] and in series [3] was 70 nM each time.
